{"source": "patent US20090298895A1", "about": "“USE OF THIOPROLINE IN BODY WEIGHT REDUCTION TREATMENTS” (Universidad De Cadiz, priority 2006, published 2009)", "type_in_all_cases": "in vivo", "key": {"CD-1 Swiss/UCàdiz mice [1]": {"test_system": "CD-1 Swiss/UCàdiz mice", "assay": "Body weight of mice on l-thioproline-supplemented diet", "design": "Variation: percentage reduction in weight between supplemented mice and control mice: concentration or dose not given beside the values", "conditions": "for Average weight: average ± SEM", "text": "To study the effect of thioproline, particularly of l-thioproline, on feeding behavior, CD-1 Swiss/UCàdiz mice bred in the Animal Experimentation department of the Universidad de Càdiz were used.\n(§1) The mice strain used in this study, CD-1 Swiss/UCàdiz, is a type of mice with accelerated senescence similar to the AKR, SAM, NZB/Lac, and SJL/J mice having a mean life span of 36-57 weeks and a maximum life expectancy of 52-83 weeks. These mice have been used in the Universidad de Càdiz in several survival studies (Navarro A, Gomez C, Sanchez-Pino M J, Gonzalez H. Bandez M J, Boveris A D and Boveris A. Vitamin E at high doses improves survival, neurological performance, and brain mitochondrial function in aging male mice. Am J Physiol Regul Integr Comp Physiol 289: R1392-R1399, 2005; Navarro A, Gomez C, Lopez-Cepero J M and Boveris A. Beneficial effects of moderate exercise on mice aging: survival, behavior, oxidative stress, and mitochondrial electron transfer. Am J Physiol Regul Integr Comp Physiol 286: R505-R511, 2004; Navarro A, Sanchez Del Pino M J, Gomez C, Peralta J L and Boveris A. Behavioral dysfunction, brain oxidative stress, and impaired mitochondrial electron transfer in aging mice. Am J Physiol Regul Integr Comp Physiol 282: R985-R992, 2002).\nThe mice were stabled in groups of 5 animals at 22±2° C. with 12 h/12 h of light/dark cycles and with free access, ad libitum, to food and water.\n(§2) The control group received standard laboratory animal food (A04 diet, Panlab LS, Barcelona, Spain), whereas the l-thioproline-supplemented mice received the same food as the mice in the control group, but supplemented with 2.0 g of l-thioproline (Sigma Aldrich)/kg of food from 28 weeks of age and until the end of their lives.\nThe food was weighed daily. The mice were weighed weekly, and it was periodically controlled that the animals were pathogen-free."}, "CD-1 Swiss/UCàdiz mice [2]": {"test_system": "CD-1 Swiss/UCàdiz mice", "assay": "Neurological tests (tightrope test and T maze test)", "conditions": "once a week, FIG. 2A, 2B", "text": "The animals of Example 1 were subjected to two tests once a week to evaluate neurological capacities, specifically to the tightrope test and the T maze test. The assayed animals were the animals mentioned in Example 1, i.e. the group of control mice and the group of mice with an l-thioproline-supplemented diet according to the treatment described in the Example 1. This test allows evaluating neuromuscular coordination. The mice were suspended in the center of a 60 cm wide tightrope and the time it took them to reach one of the columns located at the end of the rope was measured. The test was considered positive when the animal reached one of the ends in less than 60 seconds. This test measures spontaneous cognitive neurological activity. The mice were placed in a T maze with 50 cm arms, and the test was considered successful when the mice reached the intersection in less than 60 seconds."}, "CD-1 Swiss/UCàdiz mice [3]": {"test_system": "CD-1 Swiss/UCàdiz mice", "assay": "Survival of thioproline-supplemented mice", "conditions": "for Mean life span / Maximum life expectancy: supplemented mice n=70; for Mean life span: control 62±4 weeks; for Maximum life expectancy: control 118±4 weeks", "text": "as §1, §2\nThe date on which each mouse died (Example 1) was controlled to be able to obtain the survival curves."}, "CD-1 Swiss/UCàdiz mice [4]": {"test_system": "CD-1 Swiss/UCàdiz mice", "assay": "Average daily food intake ad libitum", "conditions": "diet with 2.0 g l-thioproline/kg of food", "protocol": "To study the effect of thioproline, particularly of l-thioproline, on feeding behavior, CD-1 Swiss/UCàdiz mice bred in the Animal Experimentation department of the Universidad de Càdiz were used. The mice were stabled in groups of 5 animals at 22±2° C. with 12 h/12 h of light/dark cycles and with free access, ad libitum, to food and water. The control group received standard laboratory animal food (A04 diet, Panlab LS, Barcelona, Spain), whereas the l-thioproline-supplemented mice received the same food as the mice in the control group, but supplemented with 2.0 g of l-thioproline (Sigma Aldrich)/kg of food from 28 weeks of age and until the end of their lives. The food was weighed daily. The mice were weighed weekly, and it was periodically controlled that the animals were pathogen-free."}}}
{"smiles": "O=C(O)C1CSCN1", "note": "(stereo not drawn) [l-thioproline, thiazolidine-4-carboxylic acid]", "values": [{"measurement": "Weight increase versus control group", "setting": "CD-1 Swiss/UCàdiz mice [1]; after 12 weeks of l-thioproline-supplemented diet, FIG. 1", "value": "smaller weight increase than the increase observed in the control group"}, {"measurement": "Variation: percentage reduction in weight between supplemented mice and control mice", "setting": "CD-1 Swiss/UCàdiz mice [1]; age 28 weeks", "value": 2.06, "unit": "%"}, {"measurement": "Average weight", "setting": "CD-1 Swiss/UCàdiz mice [1]; age 28 weeks (start of supplementation), diet with 2.0 g l-thioproline/kg of food", "value": "42.7 ± 0.4", "unit": "g"}, {"measurement": "Variation: percentage reduction in weight between supplemented mice and control mice", "setting": "CD-1 Swiss/UCàdiz mice [1]; age 52 weeks", "value": 4.45, "unit": "%"}, {"measurement": "Average weight", "setting": "CD-1 Swiss/UCàdiz mice [1]; age 52 weeks, diet with 2.0 g l-thioproline/kg of food from 28 weeks of age", "value": "47.2 ± 0.4", "unit": "g"}, {"measurement": "Variation: percentage reduction in weight between supplemented mice and control mice", "setting": "CD-1 Swiss/UCàdiz mice [1]; age 78 weeks", "value": 11.65, "unit": "%"}, {"measurement": "Average weight", "setting": "CD-1 Swiss/UCàdiz mice [1]; age 78 weeks, diet with 2.0 g l-thioproline/kg of food from 28 weeks of age", "value": "48.5 ± 0.5", "unit": "g"}, {"measurement": "Variation: percentage reduction in weight between supplemented mice and control mice", "setting": "CD-1 Swiss/UCàdiz mice [1]; age 100 weeks", "value": 10.18, "unit": "%"}, {"measurement": "Average weight", "setting": "CD-1 Swiss/UCàdiz mice [1]; age 100 weeks, diet with 2.0 g l-thioproline/kg of food from 28 weeks of age", "value": "49.4 ± 0.5", "unit": "g"}, {"measurement": "Improvement in the neurological tests compared to control group", "setting": "CD-1 Swiss/UCàdiz mice [2]", "value": "17-39%"}, {"measurement": "Prolongation of mean life span versus control", "setting": "CD-1 Swiss/UCàdiz mice [3]; from 62 weeks to 80 weeks", "value": "approximately 29%"}, {"measurement": "Prolongation of maximum life versus control", "setting": "CD-1 Swiss/UCàdiz mice [3]; from 118 weeks to 145 weeks", "value": "approximately 23%"}, {"measurement": "Mean life span", "setting": "CD-1 Swiss/UCàdiz mice [3]", "value": 80, "unit": "weeks"}, {"measurement": "Mean life span", "setting": "CD-1 Swiss/UCàdiz mice [3]; listed as thioproline", "value": "80±3", "unit": "weeks"}, {"measurement": "Maximum life expectancy", "setting": "CD-1 Swiss/UCàdiz mice [3]", "value": 145, "unit": "weeks"}, {"measurement": "Maximum life expectancy", "setting": "CD-1 Swiss/UCàdiz mice [3]; listed as thioproline", "value": "145±3", "unit": "weeks"}, {"measurement": "Spontaneous reduction of the intake versus control mice", "setting": "CD-1 Swiss/UCàdiz mice [4]", "value": "approximately 20%"}, {"measurement": "Average daily intake ad libitum", "setting": "CD-1 Swiss/UCàdiz mice [4]; control 6.3±0.03 g/day", "value": "5.1 ± 0.03", "unit": "g/day"}]}
